Assay results reported in ChEMBL document CHEMBL1201862, “PubChem BioAssay data set” (2004).
Calls of active or inactive are those of the source.

Key:
[1] = molecular target: T1, DNA dC->dU-editing enzyme APOBEC-3A (Homo sapiens, UniProt P31941); assay: A3A deaminase inhibition for selectivity – biochemical, dose response (AID 504722); type: functional
[2] = molecular target: Glucose-6-phosphate 1-dehydrogenase (Homo sapiens, UniProt P11413); assay: inhibition of Homo sapiens G6PD, dose series – biochemical, fluorescence, selectivity assay for P. falciparum G6PD inhibitor project, dose response (AID 504792); type: functional
Glucose-6-phosphate 1-dehydrogenase, sequence (P11413 whole entry): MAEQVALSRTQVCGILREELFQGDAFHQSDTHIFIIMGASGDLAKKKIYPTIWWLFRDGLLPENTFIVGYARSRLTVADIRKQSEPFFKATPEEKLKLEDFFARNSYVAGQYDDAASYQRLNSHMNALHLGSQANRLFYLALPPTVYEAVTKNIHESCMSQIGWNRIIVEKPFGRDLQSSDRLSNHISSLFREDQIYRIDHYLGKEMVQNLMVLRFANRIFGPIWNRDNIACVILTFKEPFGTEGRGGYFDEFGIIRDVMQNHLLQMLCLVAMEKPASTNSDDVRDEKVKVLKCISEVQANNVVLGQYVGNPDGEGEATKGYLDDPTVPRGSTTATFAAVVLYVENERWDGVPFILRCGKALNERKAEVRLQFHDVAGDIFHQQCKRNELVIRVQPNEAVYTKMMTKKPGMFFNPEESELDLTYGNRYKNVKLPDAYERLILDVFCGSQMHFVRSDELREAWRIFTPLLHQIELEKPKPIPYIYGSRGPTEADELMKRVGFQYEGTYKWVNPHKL

[3] = molecular target: T2, Heat shock factor protein 1 (Mus musculus, UniProt P38532); assay: enhancement of HSF1-driven luciferase signal – cell-based, NIH3T3, luminescence, dose retest, confirmation (AID 435004); type: functional;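 further: stress induced by proteasome inhibitor MG132 added 30 min after compound; luciferase reporter driven by HSF1 response element in NIH3T3 cells; actives raise luminescence as potentiators of the MG132 stress response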
T2 sequence (P38532 whole entry): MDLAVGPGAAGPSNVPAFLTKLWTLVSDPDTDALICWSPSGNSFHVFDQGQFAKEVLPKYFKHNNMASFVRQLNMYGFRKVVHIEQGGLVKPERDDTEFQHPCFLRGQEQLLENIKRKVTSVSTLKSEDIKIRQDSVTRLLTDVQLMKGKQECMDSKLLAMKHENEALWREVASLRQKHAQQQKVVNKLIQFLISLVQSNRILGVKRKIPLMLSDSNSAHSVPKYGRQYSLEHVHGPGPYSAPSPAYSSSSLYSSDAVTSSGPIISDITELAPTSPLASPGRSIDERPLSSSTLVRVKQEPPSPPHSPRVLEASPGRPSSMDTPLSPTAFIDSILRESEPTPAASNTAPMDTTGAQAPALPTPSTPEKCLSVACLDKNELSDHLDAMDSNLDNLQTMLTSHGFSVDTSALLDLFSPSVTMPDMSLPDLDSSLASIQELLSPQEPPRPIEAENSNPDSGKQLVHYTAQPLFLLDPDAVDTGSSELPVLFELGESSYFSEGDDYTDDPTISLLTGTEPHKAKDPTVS

[4] = molecular target: Induced myeloid leukemia cell differentiation protein Mcl-1 (Homo sapiens, UniProt Q07820); type: functional
[5] = molecular target: T3, DNA dC->dU-editing enzyme APOBEC-3G (Homo sapiens, UniProt Q9HC16); assay: Dose Response confirmation of small molecule APOBEC3G DNA Deaminase Inhibitors via a fluorescence-based single-stranded DNA deaminase assay. [Related pubchem assays (depositor defined):AID493012, AID493028]; type: functional
T3 sequence (Q9HC16 whole entry): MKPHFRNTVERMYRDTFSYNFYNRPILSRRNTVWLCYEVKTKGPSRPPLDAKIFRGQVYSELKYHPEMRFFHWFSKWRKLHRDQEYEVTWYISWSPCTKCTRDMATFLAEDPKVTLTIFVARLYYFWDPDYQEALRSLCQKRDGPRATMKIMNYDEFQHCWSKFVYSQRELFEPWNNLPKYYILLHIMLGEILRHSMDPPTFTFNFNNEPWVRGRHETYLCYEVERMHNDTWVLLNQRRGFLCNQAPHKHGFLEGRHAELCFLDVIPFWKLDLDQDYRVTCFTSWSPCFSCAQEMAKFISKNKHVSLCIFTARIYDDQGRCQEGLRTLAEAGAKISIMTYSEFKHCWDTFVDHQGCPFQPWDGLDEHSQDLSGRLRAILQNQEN

[6] = THP-1 cell cytotoxicity, dose response, cytotoxicity control for non-replicating M. tuberculosis project (AID 489025); type: functional
Large T antigen = Large T antigen (Simian virus 40, UniProt P03070); type: functional, Betapolyomavirus macacae;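 further: Confirmatory-stage PubChem screen for compounds that inhibit SV40 T antigen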
[7] = molecular target: T4, Voltage-gated N-type calcium channel alpha-1B subunit/Amyloid beta A4 precursor protein-binding family A member 1 (Homo sapiens, UniProt Q00975+Q02410); type: protein assay
T4 sequence (Q00975 whole entry): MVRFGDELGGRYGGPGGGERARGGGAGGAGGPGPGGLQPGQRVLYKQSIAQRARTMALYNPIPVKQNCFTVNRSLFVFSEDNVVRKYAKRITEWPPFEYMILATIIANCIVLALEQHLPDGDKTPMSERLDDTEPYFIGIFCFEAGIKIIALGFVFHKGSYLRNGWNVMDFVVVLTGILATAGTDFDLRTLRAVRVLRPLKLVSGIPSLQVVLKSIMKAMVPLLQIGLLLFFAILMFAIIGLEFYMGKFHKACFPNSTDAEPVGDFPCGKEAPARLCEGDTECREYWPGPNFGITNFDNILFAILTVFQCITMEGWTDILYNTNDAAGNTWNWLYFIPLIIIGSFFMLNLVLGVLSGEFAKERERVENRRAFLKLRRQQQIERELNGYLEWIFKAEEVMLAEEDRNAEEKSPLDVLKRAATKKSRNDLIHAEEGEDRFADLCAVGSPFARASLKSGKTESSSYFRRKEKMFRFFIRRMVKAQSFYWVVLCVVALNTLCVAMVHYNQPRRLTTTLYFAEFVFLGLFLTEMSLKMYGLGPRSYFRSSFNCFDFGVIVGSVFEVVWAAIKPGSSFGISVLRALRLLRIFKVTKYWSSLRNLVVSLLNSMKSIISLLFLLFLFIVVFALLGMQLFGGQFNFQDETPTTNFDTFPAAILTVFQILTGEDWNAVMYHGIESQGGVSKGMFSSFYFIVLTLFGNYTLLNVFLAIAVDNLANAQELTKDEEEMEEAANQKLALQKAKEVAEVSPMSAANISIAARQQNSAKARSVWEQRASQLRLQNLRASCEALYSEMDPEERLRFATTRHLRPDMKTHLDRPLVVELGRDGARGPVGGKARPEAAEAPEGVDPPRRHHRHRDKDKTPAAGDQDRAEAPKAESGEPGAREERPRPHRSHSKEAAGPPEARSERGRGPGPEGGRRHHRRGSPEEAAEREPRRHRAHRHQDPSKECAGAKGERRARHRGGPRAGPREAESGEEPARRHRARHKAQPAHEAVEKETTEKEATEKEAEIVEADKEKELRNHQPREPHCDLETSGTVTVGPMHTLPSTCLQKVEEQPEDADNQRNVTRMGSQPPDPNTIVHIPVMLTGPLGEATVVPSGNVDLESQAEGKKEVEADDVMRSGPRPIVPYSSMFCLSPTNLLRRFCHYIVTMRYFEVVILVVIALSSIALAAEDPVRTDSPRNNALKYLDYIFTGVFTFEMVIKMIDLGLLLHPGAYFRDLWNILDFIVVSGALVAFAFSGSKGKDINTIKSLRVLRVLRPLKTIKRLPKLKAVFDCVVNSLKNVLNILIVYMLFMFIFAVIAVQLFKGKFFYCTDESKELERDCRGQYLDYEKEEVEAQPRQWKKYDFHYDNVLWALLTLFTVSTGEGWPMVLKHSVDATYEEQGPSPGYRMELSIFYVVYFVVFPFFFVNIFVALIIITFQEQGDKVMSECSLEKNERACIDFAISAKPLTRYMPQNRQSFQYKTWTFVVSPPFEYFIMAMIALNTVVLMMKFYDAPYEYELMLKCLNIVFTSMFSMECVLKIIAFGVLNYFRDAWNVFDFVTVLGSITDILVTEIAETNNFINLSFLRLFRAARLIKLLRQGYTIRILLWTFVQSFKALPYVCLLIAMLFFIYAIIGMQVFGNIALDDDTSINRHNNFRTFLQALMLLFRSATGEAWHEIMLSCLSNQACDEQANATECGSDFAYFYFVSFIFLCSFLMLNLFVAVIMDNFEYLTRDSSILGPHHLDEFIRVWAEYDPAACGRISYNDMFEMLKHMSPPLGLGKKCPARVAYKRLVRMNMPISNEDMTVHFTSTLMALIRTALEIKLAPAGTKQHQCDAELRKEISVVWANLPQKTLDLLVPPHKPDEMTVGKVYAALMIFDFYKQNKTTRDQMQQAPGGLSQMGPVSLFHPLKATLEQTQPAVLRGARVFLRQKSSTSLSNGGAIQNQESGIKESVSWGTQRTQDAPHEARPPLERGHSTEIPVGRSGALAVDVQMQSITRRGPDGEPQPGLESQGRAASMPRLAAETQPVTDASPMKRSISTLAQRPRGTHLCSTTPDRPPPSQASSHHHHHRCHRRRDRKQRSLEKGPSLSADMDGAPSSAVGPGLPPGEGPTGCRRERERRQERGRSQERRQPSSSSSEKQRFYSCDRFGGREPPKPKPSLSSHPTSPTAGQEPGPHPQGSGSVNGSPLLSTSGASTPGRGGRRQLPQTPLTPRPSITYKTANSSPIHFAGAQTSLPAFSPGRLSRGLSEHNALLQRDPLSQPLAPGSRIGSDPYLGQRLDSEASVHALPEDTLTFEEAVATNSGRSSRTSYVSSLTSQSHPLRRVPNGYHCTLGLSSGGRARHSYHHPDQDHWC
T4 sequence (Q02410 whole entry): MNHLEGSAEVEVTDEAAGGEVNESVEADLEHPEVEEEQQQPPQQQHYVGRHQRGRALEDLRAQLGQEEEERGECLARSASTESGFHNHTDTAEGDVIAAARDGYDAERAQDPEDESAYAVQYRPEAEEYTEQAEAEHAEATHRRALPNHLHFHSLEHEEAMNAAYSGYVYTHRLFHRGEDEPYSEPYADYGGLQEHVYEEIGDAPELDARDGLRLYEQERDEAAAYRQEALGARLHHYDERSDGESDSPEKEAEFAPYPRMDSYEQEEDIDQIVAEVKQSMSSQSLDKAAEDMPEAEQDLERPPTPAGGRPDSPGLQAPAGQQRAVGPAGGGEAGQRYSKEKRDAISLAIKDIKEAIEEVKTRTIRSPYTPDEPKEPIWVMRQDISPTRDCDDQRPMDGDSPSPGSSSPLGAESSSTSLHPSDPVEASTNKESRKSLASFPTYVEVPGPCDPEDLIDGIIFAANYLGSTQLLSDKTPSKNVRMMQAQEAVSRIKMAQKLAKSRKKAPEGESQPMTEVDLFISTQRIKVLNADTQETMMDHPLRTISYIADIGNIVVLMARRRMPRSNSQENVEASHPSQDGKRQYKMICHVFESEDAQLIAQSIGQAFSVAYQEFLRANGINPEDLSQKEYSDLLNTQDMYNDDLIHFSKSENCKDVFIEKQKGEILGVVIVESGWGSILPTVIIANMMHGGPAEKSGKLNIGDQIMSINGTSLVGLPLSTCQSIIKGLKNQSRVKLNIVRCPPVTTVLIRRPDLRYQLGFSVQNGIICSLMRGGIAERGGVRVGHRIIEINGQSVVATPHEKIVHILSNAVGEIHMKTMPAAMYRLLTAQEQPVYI

[8] = molecular target: T4, Voltage-gated N-type calcium channel alpha-1B subunit/Amyloid beta A4 precursor protein-binding family A member 1; type: protein assay; remark: listed apart in the source
Streptococcus = assay: GAS UMAA2166 growth inhibition – luminescence, BacTiterGlo, counter-screen for streptokinase expression inhibitor project, dose response (AID 1915); type: functional, organism-based;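 further: potency for reduction of bacterial viability or growth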
[9] = molecular target: T5, Intestinal-type alkaline phosphatase (Homo sapiens, UniProt P09923); assay: human intestinal alkaline phosphatase activators, dose response, biochemical, luminescence, uHTS hits (AID 463120); type: functional
T5 sequence (P09923 whole entry): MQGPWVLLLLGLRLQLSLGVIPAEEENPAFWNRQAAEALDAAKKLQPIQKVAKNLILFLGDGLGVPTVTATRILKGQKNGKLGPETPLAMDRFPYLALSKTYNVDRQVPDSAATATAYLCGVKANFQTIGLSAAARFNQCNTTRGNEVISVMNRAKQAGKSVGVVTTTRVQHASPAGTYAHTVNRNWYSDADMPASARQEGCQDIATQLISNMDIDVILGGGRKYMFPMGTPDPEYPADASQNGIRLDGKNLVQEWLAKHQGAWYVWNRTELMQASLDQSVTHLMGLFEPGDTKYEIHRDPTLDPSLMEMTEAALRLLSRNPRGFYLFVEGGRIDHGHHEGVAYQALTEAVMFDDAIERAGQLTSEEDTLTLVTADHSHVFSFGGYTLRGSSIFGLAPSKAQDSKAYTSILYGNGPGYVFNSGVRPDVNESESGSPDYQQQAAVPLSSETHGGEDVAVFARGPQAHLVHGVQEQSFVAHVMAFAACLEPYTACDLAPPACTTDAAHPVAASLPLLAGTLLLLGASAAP

[10] = molecular target: Intestinal-type alkaline phosphatase (Mus musculus, UniProt P24822); assay: PubChem AID 488874; type: functional
Streptokinase A = molecular target: T6, Streptokinase A (Streptococcus pyogenes serotype M1, UniProt P10520); assay: viability-normalized secreted streptokinase activity reduction – plasminogen activation absorbance, OD405, dose response (AID 1914); type: functional, Streptococcus pyogenes M1 GAS;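 further: secreted streptokinase activity via plasminogen activation per viability signal from cell pellet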
T6 sequence (P10520 whole entry): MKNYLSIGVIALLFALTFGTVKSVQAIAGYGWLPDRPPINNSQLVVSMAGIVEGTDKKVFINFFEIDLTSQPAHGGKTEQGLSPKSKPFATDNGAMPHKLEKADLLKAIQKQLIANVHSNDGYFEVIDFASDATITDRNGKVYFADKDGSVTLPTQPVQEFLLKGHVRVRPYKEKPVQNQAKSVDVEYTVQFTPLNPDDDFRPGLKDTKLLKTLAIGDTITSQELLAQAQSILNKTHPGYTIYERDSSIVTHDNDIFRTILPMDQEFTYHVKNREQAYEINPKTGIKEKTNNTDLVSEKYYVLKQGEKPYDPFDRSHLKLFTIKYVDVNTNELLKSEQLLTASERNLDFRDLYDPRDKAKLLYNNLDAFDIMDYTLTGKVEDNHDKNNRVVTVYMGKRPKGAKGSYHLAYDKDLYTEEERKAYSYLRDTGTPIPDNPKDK

[11] = molecular target: T7, Alkaline phosphatase, tissue-nonspecific isozyme (Homo sapiens, UniProt P05186); assay: activation of tissue-nonspecific alkaline phosphatase – biochemical, TNAP isozyme, human IAP uHTS hits, selectivity assay for human IAP activator project, dose response (AID 488886); type: functional;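 further: potency of compounds raising TNAP activity as a selectivity check on IAP activators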
T7 sequence (P05186 whole entry): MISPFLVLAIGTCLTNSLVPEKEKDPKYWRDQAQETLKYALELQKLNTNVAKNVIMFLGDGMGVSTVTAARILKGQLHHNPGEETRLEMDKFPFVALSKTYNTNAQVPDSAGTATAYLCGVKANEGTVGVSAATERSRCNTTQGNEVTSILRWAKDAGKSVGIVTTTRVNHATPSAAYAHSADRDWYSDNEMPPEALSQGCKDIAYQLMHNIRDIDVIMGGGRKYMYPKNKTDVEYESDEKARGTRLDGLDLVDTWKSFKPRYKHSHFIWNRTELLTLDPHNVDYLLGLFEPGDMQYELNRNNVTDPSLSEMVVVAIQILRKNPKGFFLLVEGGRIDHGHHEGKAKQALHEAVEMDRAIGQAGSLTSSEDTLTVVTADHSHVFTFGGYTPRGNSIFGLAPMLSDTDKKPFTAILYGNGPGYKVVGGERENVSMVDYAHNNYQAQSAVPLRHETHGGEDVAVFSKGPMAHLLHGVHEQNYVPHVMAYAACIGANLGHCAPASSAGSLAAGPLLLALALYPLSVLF

[12] = molecular target: T5, Intestinal-type alkaline phosphatase; assay: activation of human intestinal alkaline phosphatase – biochemical, luminescent, uHTS hits, set 2, dose response (AID 488817); type: functional;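 further: potency of activators that raise enzyme activity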
[13] = test system: Streptococcus sp. 'group A'; assay: Streptococcus pyogenes SK(-)GAS viability under kanamycin – luminescence, BacTiterGlo, confirmation, counter-screen for streptokinase expression inhibitor project, dose response (AID 1900); type: functional, organism-based
HEK293 [14] = assay: cells; type: functional, cell-based; conditions: Homo sapiens
HEK293 [15] = assay: NOD2 signaling inhibitors in MDP-stimulated cells, cell-based, uHTS, luminescence (AID 2001); type: functional; conditions: Homo sapiens
HEK293 [16] = assay: inhibition of NOD1-driven NF-kB reporter – cell-based, luminescence, uHTS, primary screen (AID 1578); type: functional; conditions: Homo sapiens
HEK293 [17] = assay: cells; conditions: Homo sapiens
HEK293 [18] = assay: cells; type: functional, cell-based; conditions: Homo sapiens; remark: listed apart in the source
HEK293 [19] = assay: cells; conditions: Homo sapiens; remark: listed apart in the source
[20] = molecular target: Eukaryotic translation initiation factor 4H (Homo sapiens, UniProt Q15056); assay: eIF4H binding inhibition – biochemical, uHTS, fluorescence polarization, translation initiation inhibitor project, primary screen (AID 2012)
[21] = molecular target: Polyadenylate-binding protein 1 (Homo sapiens, UniProt P11940); assay: blockers of PABP interaction with poly(A) – biochemical, fluorescence polarization, […] (AID 2014)
[22] = molecular target: T1, DNA dC->dU-editing enzyme APOBEC-3A; assay: Dose Response confirmation of small molecule APOBEC3A DNA Deaminase Inhibitors via a fluorescence-based single-stranded DNA deaminase assay. [Related pubchem assays (depositor defined):AID493011, AID493024]; type: functional
[23] = molecular target: T3, DNA dC->dU-editing enzyme APOBEC-3G; type: functional
INS1 = assay: INS-1E survival protection against cytokine death – cell-based, luminescence, retest, dose response (AID 449756); type: functional; conditions: Rattus norvegicus;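 further: cell death triggered by IL-1 beta plus TNF-alpha plus IFN-gamma mixture; protective hits raise ATP signal compared with cytokine alone wells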
[24] = viability of PTEN-deleted HCT116 cells – cell-based, HCT116 PTEN knockout, dose response (AID 1047); type: functional;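 further: HCT116 colon tumor cells with PTEN knocked out; cells exposed to compound for 60 hours before readout; potency for loss of cell viability measured by luminescence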
[25] = decrease of insulin promoter-GFP reporter – imaging, high-content screening, mouse beta cells (AID 1628); type: functional; conditions: MIN6
[26] = blockers of HIV-1 ZM109 envelope-driven cell-cell fusion – HeLa effector, CEM target cells, luciferase, cherry-pick, dose response (AID 652058); type: functional, cell-based;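 further: luciferase signal from HIV-1 Env mediated cell-cell fusion of effector and target cells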
[27] = viability of HCT116 lacking mutant beta-catenin – cell-based, human colon tumor, dose response (AID 1045); type: functional;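 further: HCT116 colon tumor cells with beta catenin knocked out; cells exposed to compound for 60 hours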
[28] = HIV-1 AD8 envelope cell-cell fusion blockers – cherry-pick, dose response (AID 652062); type: functional, cell-based;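 further: luciferase signal from cell-cell fusion driven by HIV-1 clade B AD8 Env; potency is for inhibitors of fusion seen as a drop in luminescence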
[29] = MIN6 cell viability loss – mouse insulinoma, cytotoxicity control, dose response (AID 2122); type: functional;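 further: confirmatory high-throughput counterscreen run to flag cytotoxic compounds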
[30] = microbe, parasite or virus in culture; type: functional; conditions: Mycobacterium tuberculosis
Cytochrome P450 3A4 = Cytochrome P450 3A4 (Homo sapiens, UniProt P08684);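 further: CYP3A4 tested as one member of a cytochrome P450 panel screen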
[31] = off-target signal loss in HeLa-CEM21 co-culture – HeLa F-luc CTL cells, cherry-picked, counter-screen for HIV-1 Env fusion inhibitor project, dose response (AID 652040); type: functional, cell-based;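 further: potency for signal decrease marking cytotoxic or nonspecific inhibition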
[32] = blockers of HIV-1 envelope-mediated cell-cell fusion – cherry-pick, dose response (AID 652057); type: functional, cell-based
[33] = molecular target: T8, Rac GTPase-activating protein 1 (Homo sapiens, UniProt Q9H0H5); assay: blockers of MgcRacGAP-driven Rac1 GTP hydrolysis – biochemical, ADP Hunter fluorescence, primary and confirmatory, confirmation (AID 624330); type: functional
T8 sequence (Q9H0H5 whole entry): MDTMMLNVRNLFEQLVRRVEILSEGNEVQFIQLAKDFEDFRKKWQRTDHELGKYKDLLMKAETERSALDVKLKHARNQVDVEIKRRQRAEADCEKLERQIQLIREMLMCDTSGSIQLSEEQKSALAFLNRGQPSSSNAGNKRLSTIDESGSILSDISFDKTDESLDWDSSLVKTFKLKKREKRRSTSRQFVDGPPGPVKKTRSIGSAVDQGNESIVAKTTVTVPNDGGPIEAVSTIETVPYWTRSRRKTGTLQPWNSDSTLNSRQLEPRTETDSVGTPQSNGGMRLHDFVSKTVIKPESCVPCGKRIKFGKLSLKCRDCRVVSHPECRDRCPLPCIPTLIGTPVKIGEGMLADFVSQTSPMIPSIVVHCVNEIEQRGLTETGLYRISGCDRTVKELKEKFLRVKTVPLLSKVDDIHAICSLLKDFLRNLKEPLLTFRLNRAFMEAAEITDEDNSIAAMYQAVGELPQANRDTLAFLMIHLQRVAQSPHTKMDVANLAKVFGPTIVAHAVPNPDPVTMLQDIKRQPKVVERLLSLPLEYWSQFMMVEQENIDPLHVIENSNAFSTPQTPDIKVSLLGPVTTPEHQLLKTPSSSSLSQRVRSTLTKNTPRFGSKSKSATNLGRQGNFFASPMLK

T1 sequence (P31941 whole entry): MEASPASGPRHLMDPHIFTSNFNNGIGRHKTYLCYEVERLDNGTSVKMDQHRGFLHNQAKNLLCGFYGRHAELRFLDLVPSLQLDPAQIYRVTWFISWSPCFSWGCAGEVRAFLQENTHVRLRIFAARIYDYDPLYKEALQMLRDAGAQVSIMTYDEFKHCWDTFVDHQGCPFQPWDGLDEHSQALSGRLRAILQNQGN

COc1cc(SSc2cc(OC)cc([N+](=O)[O-])c2N)c(N)c([N+](=O)[O-])c1
IC50 [1]: > 100 µM (inactive)
IC50 [2]: 20.9 µM (inactive)
EC50 [3]: > 260 µM (inactive)
IC50 [4]: > 54 µM (active)
IC50 [5]: 2.54 µM (active)

CCOc1ccc(NC(=O)Cn2sc3nc(C)cc(C)c3c2=O)cc1
CC50 [6]: 36.1 µM (active)
IC50 (Large T antigen): > 100 µM (active)
IC50 [7]: > 50 µM (inactive)
IC50 [1]: > 100 µM (inactive)
IC50 [8]: 13.1 µM (active)
IC50 [2]: 24.1 µM (inactive)
IC50 [5]: 2.96 µM (active)

O=C(CCN1C(=O)/C(=C/c2ccccc2Cl)SC1=S)NNC(=O)c1ccccc1O
EC50 (Streptococcus): 14.6 µM (active)
EC50 [9]: 7.7 µM (active)
IC50 [10]: 66.5 µM (active)
EC50 (Streptokinase A): 8.36 µM (active)
EC50 [11]: 23.2 µM (active)
EC50 [12]: 17.7 µM (active)
EC50 [13]: 3.63 µM (active)

CN(C)S(=O)(=O)c1cc(NC(=O)CSc2nn(-c3ccc(Cl)cc3)c(=S)s2)ccc1Cl
IC50 (HEK293 [14]): 5.23 µM (active)
IC50 (HEK293 [15]): 4.69 µM (active)
EC50 (HEK293 [16]): 13.4 µM (active)
EC50 (HEK293 [17]): > 59.7 µM (inactive)
IC50 (HEK293 [18]): 11.2 µM (active)
EC50 (HEK293 [19]): > 59.7 µM (inactive)

CCOC(=O)COc1ccc(Br)cc1/C=C1\SC(N)=NC1=O
IC50 [20]: > 100 µM (inactive)
IC50 [21]: 7.13 µM (active)
IC50 [22]: 8.37 µM (active)
IC50 [23]: 8.41 µM (active)

c1ccc2c(c1)ncn2CCCCOc1ccc2c(c1)CCC2
AC50 (INS1): 5.04 µM (active)
EC50 [24]: 24.1 µM (active)
IC50 [25]: 2.69 µM (active)
AC50 [26]: 28.6 µM (active)
EC50 [27]: 22.8 µM (active)
AC50 [28]: 9.21 µM (active)
IC50 [29]: 2.1 µM (active)
CC50 [30]: > 40 µM (active)

CN(C)c1ncc2nc(-c3ccc(Cl)cc3)c(=O)n(Cc3ccc(F)cc3)c2n1
AC50 (Cytochrome P450 3A4): inconclusive

Cc1ccc(C)c(NC(=O)c2cc[n+](C)cc2)c1
IC50 [22]: 2.08 µM (active)
IC50 [23]: 4.76 µM (active)

COc1ccc(C(C)=O)cc1CC1(C)C(=O)Nc2ccc(-c3ccccc3OC)cc21 (centres undefined)
EC50 (HEK293 [17]): > 59.6 µM (inactive)
AC50 [26]: 0.627 µM (active)
AC50 [28]: 2.02 µM (active)
AC50 [31]: 0.397 µM (active)
AC50 [32]: 0.29 µM (active)
EC50 (HEK293 [19]): > 59.6 µM (inactive)

COc1cc(/C=N/n2c(S)nnc2-c2cc(C)[nH]n2)cc(OC)c1OC
IC50 [1]: > 100 µM (inactive)
IC50 [33]: 82.2 µM (active)
IC50 [5]: 2.5 µM (active)
